Results published in patent US11932658B2 (BRISTOL-MYERS SQUIBB COMPANY, priority 2016, dated 2024).
pIC50: −log10 of the molar value.

Each compound was assayed against T1, PAR4 (Homo sapiens, UniProt Q96RI0) (assay: PAR4 FLIPR assay (antagonism of agonist peptide-induced calcium mobilization)).
T1 construct: expressed in transfected cells; host or cells: HEK293 PAR4 Clone 1.2A (BMS Arctic ID 383940)
T1 sequence (Q96RI0 18-385): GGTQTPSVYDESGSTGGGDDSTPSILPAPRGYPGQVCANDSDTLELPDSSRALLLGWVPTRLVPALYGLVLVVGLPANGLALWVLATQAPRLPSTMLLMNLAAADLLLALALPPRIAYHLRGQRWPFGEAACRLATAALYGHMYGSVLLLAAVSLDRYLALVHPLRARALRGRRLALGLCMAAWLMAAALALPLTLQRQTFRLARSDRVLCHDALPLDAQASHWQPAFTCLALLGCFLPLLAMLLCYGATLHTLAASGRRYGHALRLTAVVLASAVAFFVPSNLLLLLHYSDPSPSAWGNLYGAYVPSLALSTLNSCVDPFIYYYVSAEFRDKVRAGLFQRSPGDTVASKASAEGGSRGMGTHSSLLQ
Assay type: cell-based
Description: The FLIPR assay is an exemplary in vitro assay for measuring the activity of the PAR4 antagonists of the present invention. In this assay, intracellular calcium mobilization is induced in PAR4 expressing cells by a PAR4 agonist and calcium mobilization is monitored.
HEK293 cells stably expressing PAR4 were generated by a standard method of transfection of human PAR4 (F2R23) cDNA expression vector and selected based on PAR4 protein expression or mRNA expression. […] These cells also express endogenous PAR1 and can elicit calcium signal upon stimulation with PAR1 agonist peptide. Therefore, the same cells were also used to determine selectivity against PAR1 and agonist activity for both receptors. Cells from HEK293 PAR4 Clone 1.2A (BMS Arctic ID 383940) were propagated and used for calcium mobilization studies.
FLIPR-based calcium mobilization assay in HEK293 cells was used to measure PAR4 antagonism, agonism, and selectivity against PAR1. The activity of the PAR4 antagonists of the present invention were tested in PAR4 expressing cells by monitoring H-Ala-Phe(4-F)-Pro-Gly-Trp-Leu-Val-Lys-Asn-Gy-NH2-induced intracellular calcium mobilization. Counter screens for agonist activity and PAR1 antagonist activity were also performed. Briefly, PAR1/PAR4-expressing HEK293 cells were grown in DMEM (Life Technology, Grand Island, NY) containing 10% heat-inactivated FBS, 1% Penicillin-Streptomycin, 10 μg/mL blasticidin, and 100 μg/mL Zeocin at 37° C. with 5% CO2. Cells were plated overnight prior to the experiment in a black 384-well Purecoat Amine clear bottom plate (Becton Dickinson Biosciences, San Jose, CA) at 10,000 cells/well in 30 μL growth medium and incubated in a humidified chamber at 37° C. with 5% CO2 overnight. Prior to compound addition, the cell medium was replaced with 40 μL of 1× calcium and magnesium-containing Hank's Balanced Saline Solution (HBSS) (with 20 mM HEPES) and 1:1000 diluted fluorescent calcium indicator (Codex Biosolutions, Gaithersburg, MD). After a 30 minute incubation period at 37° C. and a further 30 minute incubation and equilibration period at room temperature, 20 μL test compound (diluted in 1×HBSS buffer) was added at various concentrations at 0.17% dimethyl sulfoxide (DMSO) final concentration. Changes in fluorescence intensity were measured using a Functional Drug Screening System (FDSS, Hamamatsu, Japan) to determine agonist activities. The cells were then incubated for 30 minutes at room temperature followed by addition of 20 μL of agonist peptide for antagonist activity measurement. […] Compound potency was derived from 11-point concentration-response curves.

| SMILES | pIC50 |
| --- | --- |
| COc1cnc2c(-c3nc4c(Cl)cc5c(c4s3)OC[C@H](COC(=O)Nc3ccc(F)nc3)O5)cc(C)cc2n1 [Example 29, (R)-(4-chloro-2-(2-methoxy-7-methylquinoxalin-5-yl)-7,8-dihydro-[1,4]dioxino[2′,3′:3,4]benzo[1,2-d]thiazol-7-yl)methyl (6-fluoropyridin-3-yl)carbamate] | 8.54 |
| COc1cnc2c(-c3nc4c(Cl)cc5c(c4s3)OC[C@H](COC(=O)Nc3ccncc3)O5)cc(C)cc2n1 [Example 30, (R)-(4-chloro-2-(2-methoxy-7-methylquinoxalin-5-yl)-7,8-dihydro-[1,4]dioxino[2′,3′:3,4]benzo[1,2-d]thiazol-7-yl)methyl pyridin-4-ylcarbamate] | 8.44 |
| COc1cnc2c(-c3nc4c(Cl)cc5c(c4s3)OC[C@H](COC(=O)Nc3cccnc3)O5)cc(C)cc2n1 [Example 31, (R)-(4-chloro-2-(2-methoxy-7-methylquinoxalin-5-yl)-7,8-dihydro-[1,4]dioxino[2′,3′:3,4]benzo[1,2-d]thiazol-7-yl)methyl pyridin-3-ylcarbamate] | 9.05 |
| COc1cnc2c(-c3nc4c(Cl)cc5c(c4s3)OC[C@H](COC(=O)Nc3ccc(Cl)nc3)O5)cc(C)cc2n1 [Example 32, (R)-(4-chloro-2-(2-methoxy-7-methylquinoxalin-5-yl)-7,8-dihydro-[1,4]dioxino[2′,3′:3,4]benzo[1,2-d]thiazol-7-yl)methyl (6-chloropyridin-3-yl)carbamate] | 8.74 |
| COc1cnc2c(-c3nc4c(Cl)cc5c(c4s3)OC[C@H](COC(=O)Nc3ccnc(C)c3)O5)cc(C)cc2n1 [Example 33, (R)-(4-chloro-2-(2-methoxy-7-methylquinoxalin-5-yl)-7,8-dihydro-[1,4]dioxino[2′,3′:3,4]benzo[1,2-d]thiazol-7-yl)methyl (2-methylpyridin-4-yl)carbamate] | 8.55 |
| COc1cnc2c(-c3nc4c(Cl)cc5c(c4s3)OC[C@H](COC(=O)Nc3ccnnc3)O5)cc(C)cc2n1 [Example 34, (R)-(4-chloro-2-(2-methoxy-7-methylquinoxalin-5-yl)-7,8-dihydro-[1,4]dioxino[2′,3′:3,4]benzo[1,2-d]thiazol-7-yl)methyl pyridazin-4-ylcarbamate] | 8.48 |
| COc1cnc2c(-c3nc4c(Cl)cc5c(c4s3)OC[C@H](COC(=O)Nc3ccc(C#N)nc3)O5)cc(C)cc2n1 [Example 35, (R)-(4-chloro-2-(2-methoxy-7-methylquinoxalin-5-yl)-7,8-dihydro-[1,4]dioxino[2′,3′:3,4]benzo[1,2-d]thiazol-7-yl)methyl (6-cyanopyridin-3-yl)carbamate] | 8.85 |
| COc1cc(NC(=O)OC[C@H]2COc3c(cc(Cl)c4nc(-c5cc(C)cc6nc(OC)cnc56)sc34)O2)ccn1 [Example 36, (R)-(4-chloro-2-(2-methoxy-7-methylquinoxalin-5-yl)-7,8-dihydro-[1,4]dioxino[2′,3′:3,4]benzo[1,2-d]thiazol-7-yl)methyl (2-methoxypyridin-4-yl)carbamate] | 8.77 |
| COc1cnc2c(-c3nc4c(Cl)cc5c(c4s3)OC[C@H](COC(=O)Nc3cncc(C#N)c3)O5)cc(C)cc2n1 [Example 37, (R)-(4-chloro-2-(2-methoxy-7-methylquinoxalin-5-yl)-7,8-dihydro-[1,4]dioxino[2′,3′:3,4]benzo[1,2-d]thiazol-7-yl)methyl (5-cyanopyridin-3-yl)carbamate] | 8.82 |
| COc1cnc2c(-c3nc4c(C)cc5c(c4s3)OC[C@H](COC(=O)Nc3ccc(C#N)nc3)O5)cc(C)cc2n1 [Example 38, (R)-(2-(2-methoxy-7-methylquinoxalin-5-yl)-4-methyl-7,8-dihydro-[1,4]dioxino[2′,3′:3,4]benzo[1,2-d]thiazol-7-yl)methyl (6-cyanopyridin-3-yl)carbamate] | 8.89 |
| COc1cnc2c(-c3nc4c(Cl)cc5c(c4s3)OC[C@H](COC(=O)Nc3ccc4scnc4c3)O5)cc(C)cc2n1 [Example 39, (R)-(4-chloro-2-(2-methoxy-7-methylquinoxalin-5-yl)-7,8-dihydro-[1,4]dioxino[2′,3′:3,4]benzo[1,2-d]thiazol-7-yl)methyl benzo[d]thiazol-5-ylcarbamate] | 7.74 |
| COc1cnc2c(-c3nc4c(Cl)cc5c(c4s3)OC[C@H](COC(=O)Nc3ccc4ncsc4c3)O5)cc(C)cc2n1 [Example 40, (R)-(4-chloro-2-(2-methoxy-7-methylquinoxalin-5-yl)-7,8-dihydro-[1,4]dioxino[2′,3′:3,4]benzo[1,2-d]thiazol-7-yl)methyl benzo[d]thiazol-6-ylcarbamate] | 7.01 |
| COc1cnc2c(-c3nc4c(C)cc5c(c4s3)OC[C@H](COC(=O)Nc3ccc(F)nc3)O5)cc(C)cc2n1 [Example 41, (R)-(2-(2-methoxy-7-methylquinoxalin-5-yl)-4-methyl-7,8-dihydro-[1,4]dioxino[2′,3′:3,4]benzo[1,2-d]thiazol-7-yl)methyl (6-fluoropyridin-3-yl)carbamate] | 8.80 |
| COc1cnc2c(-c3nc4c(C)cc5c(c4s3)OC[C@H](COC(=O)Nc3cncc(F)c3)O5)cc(C)cc2n1 [Example 42, (R)-(2-(2-methoxy-7-methylquinoxalin-5-yl)-4-methyl-7,8-dihydro-[1,4]dioxino[2′,3′:3,4]benzo[1,2-d]thiazol-7-yl)methyl (5-fluoropyridin-3-yl)carbamate] | 7.30 |
| COc1cncc(NC(=O)OC[C@H]2COc3c(cc(C)c4nc(-c5cc(C)cc6nc(OC)cnc56)sc34)O2)c1 [Example 43, (R)-(2-(2-methoxy-7-methylquinoxalin-5-yl)-4-methyl-7,8-dihydro-[1,4]dioxino[2′,3′:3,4]benzo[1,2-d]thiazol-7-yl)methyl (5-methoxypyridin-3-yl)carbamate] | 8.10 |
| COc1cnc2c(-c3nc4c(C)cc5c(c4s3)OC[C@H](COC(=O)Nc3ccnc(C)c3)O5)cc(C)cc2n1 [Example 44, (R)-(2-(2-methoxy-7-methylquinoxalin-5-yl)-4-methyl-7,8-dihydro-[1,4]dioxino[2′,3′:3,4]benzo[1,2-d]thiazol-7-yl)methyl (2-methylpyridin-4-yl)carbamate] | 9.10 |
| COc1cc(NC(=O)OC[C@H]2COc3c(cc(C)c4nc(-c5cc(C)cc6nc(OC)cnc56)sc34)O2)ccn1 [Example 45, (R)-(2-(2-methoxy-7-methylquinoxalin-5-yl)-4-methyl-7,8-dihydro-[1,4]dioxino[2′,3′:3,4]benzo[1,2-d]thiazol-7-yl)methyl (2-methoxypyridin-4-yl)carbamate] | 8.96 |
| COc1cnc2c(-c3nc4c(C)cc5c(c4s3)OC[C@H](COC(=O)Nc3cccc(C#N)c3)O5)cc(C)cc2n1 [Example 46, (R)-(2-(2-methoxy-7-methylquinoxalin-5-yl)-4-methyl-7,8-dihydro-[1,4]dioxino[2′,3′:3,4]benzo[1,2-d]thiazol-7-yl)methyl (3-cyanophenyl)carbamate] | 9.00 |
| COc1cnc2c(-c3nc4c(C)cc5c(c4s3)OC[C@H](COC(=O)Nc3ccc(Cl)nc3)O5)cc(C)cc2n1 [Example 47, (R)-(2-(2-methoxy-7-methylquinoxalin-5-yl)-4-methyl-7,8-dihydro-[1,4]dioxino[2′,3′:3,4]benzo[1,2-d]thiazol-7-yl)methyl (6-chloropyridin-3-yl)carbamate] | 8.92 |
| COc1cnc2c(-c3nc4c(C)cc5c(c4s3)OC[C@H](COC(=O)Nc3ccncc3)O5)cc(C)cc2n1 [Example 48, (R)-(2-(2-methoxy-7-methylquinoxalin-5-yl)-4-methyl-7,8-dihydro-[1,4]dioxino[2′,3′:3,4]benzo[1,2-d]thiazol-7-yl)methyl pyridin-4-ylcarbamate] | 7.60 |
| COc1cnc2c(-c3nc4c(C)cc5c(c4s3)OC[C@H](COC(=O)Nc3ccc4scnc4c3)O5)cc(C)cc2n1 [Example 49, (R)-(2-(2-methoxy-7-methylquinoxalin-5-yl)-4-methyl-7,8-dihydro-[1,4]dioxino[2′,3′:3,4]benzo[1,2-d]thiazol-7-yl)methyl benzo[d]thiazol-5-ylcarbamate] | 7.31 |
